The IC50 is the concentration that inhibits the measured activity by half. A word on the Ki: it is a dissociation constant, usually derived from enzyme kinetics or from competition with a known ligand. In general, inhibition refers to the share of the control response that was lost under treatment. As a reminder, the melting point is the temperature of the solid-liquid transition.

Molecules are shown by their SMILES. “Also recorded” adds a separate entry of the source. Read-outs that look alike come from different tables or passages of the source. Bounds are passed on as bounds.

For data set [1], the target named is T1, MAO-A (Homo sapiens, UniProt P21397).
T1 construct: purchased BD Biosciences (Bedford, MA, USA)
T1 sequence (P21397 1-527): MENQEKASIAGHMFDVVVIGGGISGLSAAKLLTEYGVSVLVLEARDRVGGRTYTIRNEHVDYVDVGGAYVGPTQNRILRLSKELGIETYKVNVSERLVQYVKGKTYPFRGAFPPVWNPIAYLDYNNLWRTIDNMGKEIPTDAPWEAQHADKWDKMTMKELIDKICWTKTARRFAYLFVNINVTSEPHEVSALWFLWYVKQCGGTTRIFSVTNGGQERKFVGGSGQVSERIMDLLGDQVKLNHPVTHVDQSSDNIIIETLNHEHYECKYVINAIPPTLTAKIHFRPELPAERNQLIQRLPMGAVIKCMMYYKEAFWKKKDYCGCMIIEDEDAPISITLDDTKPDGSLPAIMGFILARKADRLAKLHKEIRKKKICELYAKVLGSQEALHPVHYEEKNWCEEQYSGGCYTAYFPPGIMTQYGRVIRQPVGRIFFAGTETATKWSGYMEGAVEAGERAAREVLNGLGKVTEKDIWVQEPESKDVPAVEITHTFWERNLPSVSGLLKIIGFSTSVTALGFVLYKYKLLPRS
Description: MAO inhibition assay (kynuramine oxidative deamination), MAO-A. As to conditions: for SI b (Selectivity index: MAO-A IC50/MAO-B IC50): ratio of IC50 values. The format is biochemical. As for the experimental part: In this study, we have investigated the effect of the isolated constituents (1–6) on human recombinant MAO-A and -B. The kynuramine oxidation deamination assay was performed in 96-well plates as previously reported, with modification. A fixed concentration of kynuramine substrate and varying concentrations of test compounds or inhibitor were used to determine the IC50 values. Kynuramine concentrations for MAO-A and -B were 80 μM and 50 μM, respectively. […] The enzymatic reactions were initiated by the addition of MAO-A (5 μg/mL) or -B (12.5 μg/mL), and incubated for 20 min at 37 °C. The enzyme reactions were terminated by the addition of 78 μL of 2N NaOH. The formation of 4-hydroxyquinoline (the enzyme reaction end product) was recorded fluorometrically on a SpectraMax M5 fluorescence plate reader (Molecular Devices, Sunnyvale, CA, USA) with an excitation (320 nm) and emission (380 nm) wavelength, using the Soft MaxPro-6 program. The inhibition effects of enzyme activity were calculated as the percent of product formation compared to the corresponding controls (enzyme–substrate reaction) without inhibitors. The assay controls, to define the interference of the test compounds with the fluorescence measurements, were set up simultaneously, and the enzyme or the substrate was added after stopping the reaction.
(§1) The dose–response enzyme-inhibition curves were generated using Microsoft® Excel and the IC50 values were computed with XLfit®.

Data set [2] deals with T1, MAO-A. Description: Enzyme kinetics and mechanism study (Lineweaver-Burk), MAO-A. The format is biochemical. Conditions: for Type of Inhibition, Monoamine Oxidase-A: kinetics and dialysis.
Description: (§3) Three sets of assays were completed at varying concentrations of the substrate for each experiment, one control without inhibitor and the others with two different concentrations of the inhibitor. The data were evaluated by double reciprocal Lineweaver-Burk plots for determination of the Ki (i.e., inhibition/binding affinity) values.
(§4) For determination of the binding affinity of the inhibitor (Ki) to MAO-A and -B, the enzyme assays were carried out at different concentrations of kynuramine substrate (1.90 μM to 500 μM) and varying concentrations of the inhibitors/compound. The flavonoids (1–6) were tested at 0.030–0.100 μM for MAO-A and 0.100–0.500 μM for -B. The controls without inhibitor were also run simultaneously. The results were analyzed by SigmaPlot version 10 using standard double reciprocal Lineweaver-Burk plots for computing Km and Vmax values, which were further analyzed to determine the Ki values [18, 36, 37].
Data set [3] addresses T2, MAO-B (Homo sapiens, UniProt P27338).
T2 sequence (P27338 1-520): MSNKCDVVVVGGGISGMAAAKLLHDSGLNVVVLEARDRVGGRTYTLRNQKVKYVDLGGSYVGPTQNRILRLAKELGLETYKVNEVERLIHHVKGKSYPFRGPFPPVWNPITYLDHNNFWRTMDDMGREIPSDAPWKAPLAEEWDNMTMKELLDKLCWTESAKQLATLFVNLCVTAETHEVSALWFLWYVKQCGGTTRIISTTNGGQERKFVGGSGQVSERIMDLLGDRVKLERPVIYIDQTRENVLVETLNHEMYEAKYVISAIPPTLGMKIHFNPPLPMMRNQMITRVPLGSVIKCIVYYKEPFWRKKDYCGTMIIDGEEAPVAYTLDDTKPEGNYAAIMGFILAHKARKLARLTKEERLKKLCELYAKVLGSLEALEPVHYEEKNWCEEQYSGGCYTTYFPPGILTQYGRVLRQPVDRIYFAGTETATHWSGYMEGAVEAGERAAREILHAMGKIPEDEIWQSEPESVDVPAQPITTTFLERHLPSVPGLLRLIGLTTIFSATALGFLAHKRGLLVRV
Nature of the data set: MAO inhibition assay (kynuramine oxidative deamination), MAO-B. Format: biochemical. Details: purchased BD Biosciences (Bedford, MA, USA). Conditions: kynuramine 50 μM; mean ± S.D. of at least triplicate observations. As to the method:
In this study, we have investigated the effect of the isolated constituents (1–6) on human recombinant MAO-A and -B. The kynuramine oxidation deamination assay was performed in 96-well plates as previously reported, with modification. A fixed concentration of kynuramine substrate and varying concentrations of test compounds or inhibitor were used to determine the IC50 values. Kynuramine concentrations for MAO-A and -B were 80 μM and 50 μM, respectively. […] The enzyme reactions were terminated by the addition of 78 μL of 2N NaOH. The formation of 4-hydroxyquinoline (the enzyme reaction end product) was recorded fluorometrically on a SpectraMax M5 fluorescence plate reader (Molecular Devices, Sunnyvale, CA, USA) with an excitation (320 nm) and emission (380 nm) wavelength, using the Soft MaxPro-6 program. The inhibition effects of enzyme activity were calculated as the percent of product formation compared to the corresponding controls (enzyme–substrate reaction) without inhibitors. The assay controls, to define the interference of the test compounds with the fluorescence measurements, were set up simultaneously, and the enzyme or the substrate was added after stopping the reaction.
as §1

In data set [4] the target is T2, MAO-B. Nature of the data set: Enzyme-inhibitor complex equilibrium dialysis assay, MAO-B. The format is binding. Details: purchased BD Biosciences (Bedford, MA, USA). Conditions: for MAO-B enzyme activity recovered after dialysis / inhibition at 50 µM: 50.0 μM; for inhibition at 50 µM: read-out: Inhibition of MAO-B activity on incubation (before dialysis); for Reversibility of binding with MAO-B: 20 min incubation, dialyzed overnight, 3, 4, 6 at 50.0 μM, deprenyl 0.500 μM. As to the method: (§2) Enzyme-inhibitors mostly produce inhibition of the target enzyme through the formation of an enzyme–inhibitor complex. The formation of the enzyme–inhibitor complex may be accelerated in the presence of a high concentration of the test inhibitor. The property of binding of test compounds to MAO-A or -B was determined by the formation of the enzyme–inhibitor complex by incubation of the enzyme with a high concentration of the test compound. This was followed by extensive equilibrium dialysis of the enzyme–inhibitor complex. Recovery of catalytic activity of MAO-A and -B was determined before and after the dialysis. […] After 20 min incubation at 37 °C, the reaction was stopped by chilling the tubes in an ice bath. […] All the samples with enzyme–inhibitor complex were individually dialyzed against potassium phosphate buffer (25 mM; pH 7.4) at 4 °C for 16–18 h (including three buffer changes). The control enzyme (without inhibitor) was also run through the same procedure and the activity of the enzyme was determined before and after the dialysis.
On the technique in general: In equilibrium dialysis free small molecules cross a membrane that holds back macromolecules.

The target of data set [5] is T2, MAO-B. Nature of the data set: Time-dependent inhibition assay, MAO-B. Details: purchased BD Biosciences (Bedford, MA, USA). Format: biochemical. As to conditions: pre-incubation 0–15 min; 3 3.0 μM, 4 1.0 μM, 6 2.0 μM. As to the method: To investigate if the binding of the inhibitor with MAO-A and -B followed time-dependent inhibition kinetics, the enzyme was pre-incubated with the inhibitor for different time periods (0–15 min). […] The controls without inhibitors were also run simultaneously. The activities of the MAO-A and -B enzymes were determined as described above and the percentage of enzyme activity remaining was plotted against the pre-incubation time to determine time-dependent inhibition.

Data set [6] addresses T2, MAO-B. Description: Enzyme kinetics and mechanism study (Lineweaver-Burk), MAO-B. As to conditions: for Type of Inhibition, Monoamine Oxidase-B: kinetics and dialysis.
Description: as §3, §4
In data set [7] the target is T1, MAO-A. Nature of the data set: Enzyme-inhibitor complex equilibrium dialysis assay, MAO-A. The format is binding. As to conditions: 20 min incubation, dialyzed overnight; 1 10.0 μM, 2 25.0 μM, 3 25.0 μM, 5 100.0 μM. As for the experimental part: as §2
Where [8] appears, read: kynuramine 80 μM, mean ± S.D. of at least triplicate observations, read-out: MAO-A IC50.
Setting [9] is: double reciprocal plots, mean ± SD of three observations, read-out: Ki, Monoamine Oxidase-A.

In the case of `COc1ccc(-c2oc3cc(O)cc(O)c3c(=O)c2OC)cc1` [Compound 1, 3,4′-di-O-methylkaempferol], on MAO-A [1], the “Selectivity for MAO-A vs. MAO-B” value is on record as more than 292 fold and the “SI b (Selectivity index: MAO-A IC50/MAO-B IC50)” value stood at 0.0034. In addition, the IC50 at MAO-A [1] (setting [8]) stood at 33 ± 42 nM. Also, the Ki on MAO-A [2] (setting [9]) was found to be 37.9 ± 0.8 nM. The “Type of Inhibition, Monoamine Oxidase-A” value on MAO-A [2] is reported as “reversible-competitive; also recorded: Competitive/Reversible”. The IC50 at MAO-B [3] turned out to be 9670 ± 2310 nM.

As for `COc1cc(O)c(C(=O)/C=C/c2ccccc2)c(OC)c1` [Compound 2, 2′-hydroxy-4′,6′-dimethoxy-chalcone], the half-maximal inhibitory concentration (IC50) on MAO-A [1] (setting [8]) was determined as 407 ± 75 nM; at MAO-B [3] it was 5930 ± 833 nM. Moreover, on MAO-A [2] (setting [9]), the Ki was 339 ± 219 nM. Moreover, on MAO-A [2], the “Type of Inhibition, Monoamine Oxidase-A” value is reported as “Competitive/Reversible”.

In the case of `COc1cc(O)cc(O)c1C(=O)/C=C/c1ccccc1` [Compound 3, 2′,4′-dihydroxy-6′-methoxy-chalcone], on MAO-A [1], the IC50 was found to be 1170 ± 513 nM, the “Selectivity for MAO-A vs. MAO-B” value is ~ 2 fold and the “SI b (Selectivity index: MAO-A IC50/MAO-B IC50)” value came to 0.432. Also, at MAO-A [2], the Ki was determined as 633 ± 107 nM and the “Type of Inhibition, Monoamine Oxidase-A” value was “reversible-competitive; also recorded: Competitive/Reversible”. In addition, the IC50 on MAO-B [3] was determined as 2700 ± 794 nM. Also, on MAO-B [4], the “MAO-B enzyme activity recovered after dialysis” value (“MAO-B enzyme activity recovered” below) came out at 80%, the inhibition at 50 µM is more than 60% and the “Reversibility of binding with MAO-B” value was “reversible; also recorded: reversibly”. Also, at MAO-B [5], the “Time dependence of MAO-B inhibition” value is “did not show time-dependent inhibition”. Further, at MAO-B [6], the affinity corresponds to a Ki of 1240 ± 600 nM; the “Type of Inhibition, Monoamine Oxidase-B” value was “reversible and competitive”.

For the compound `COc1cc2oc(-c3ccc(O)cc3)cc(=O)c2c(O)c1C` [Compound 4, 8-demethylsideroxylin], the melting point was in the range of 275 to 277 °C. The IC50 on MAO-A [1] (setting [8]) was 5170 ± 1110 nM. Moreover, the “SI b (Selectivity index: MAO-A IC50/MAO-B IC50)” value at MAO-A [1] is given as 6.451. Also, on MAO-B [3], the IC50 worked out at 800 ± 180 nM. For the same compound, on MAO-B [4], the “MAO-B enzyme activity recovered” value came out at 80%, the inhibition at 50 µM is more than 60% and the “Reversibility of binding with MAO-B” value is listed as “reversible; also recorded: reversibly”. At MAO-B [5], the “Time dependence of MAO-B inhibition” value is “did not show time-dependent inhibition”. On MAO-B [6], the Ki amounted to 809 ± 93 nM; the “Type of Inhibition, Monoamine Oxidase-B” value is “reversible and competitive”.

Regarding `COc1ccc(-c2oc3cc(O)cc(O)c3c(=O)c2O)cc1` [Compound 5, 4′-O-methylkaempferol], the IC50 is 1350 ± 198 nM on MAO-A [1] (setting [8]) and more than 100000 nM on MAO-B [3]. Also, the Ki on MAO-A [2] (setting [9]) was found to be 3530 ± 265 nM. Moreover, the “Type of Inhibition, Monoamine Oxidase-A” value on MAO-A [2] is recorded as “partially-reversible mixed-type”. Besides, the “Reversibility of binding with MAO-A” value on MAO-A [7] is “partial reversibility; also recorded: partially reversible”.

Regarding `COc1cc(-c2cc(=O)c3c(O)cc(O)cc3o2)c(OC)c(OC)c1OC` [Compound 6, 5,7-dihydroxy-2,3,4,5-tetramethoxyflavone], the IC50 on MAO-A [1] (setting [8]) stood at 87500 ± 3540 nM. Further, the “SI b (Selectivity index: MAO-A IC50/MAO-B IC50)” value at MAO-A [1] turned out to be 100.0. Moreover, the IC50 at MAO-B [3] was found to be 875 ± 35 nM. Moreover, at MAO-B [4], the “MAO-B enzyme activity recovered” value is on record as 80%, the inhibition at 50 µM was more than 60% and the “Reversibility of binding with MAO-B” value is given as “reversible; also recorded: reversibly”. Moreover, on MAO-B [5], the “Time dependence of MAO-B inhibition” value was “did not show time-dependent inhibition”. Also, on MAO-B [6], the Ki worked out at 874 ± 69 nM; the “Type of Inhibition, Monoamine Oxidase-B” value is “reversible and competitive”.
